We go through four molecules from patent publication EP0703904B1, “PYRIMIDINE CYANOGUANIDINES AS K-CHANNEL BLOCKERS” (priority 1993, dated 1994).

One assay has as its target RMA K^+ Channel (Oryctolagus cuniculus, UniProt P82451+Q8WMQ7). Put plainly: Inhibition of pinacidil-induced relaxation of norepinephrine-contracted isolated rabbit mesenteric artery (RMA) rings. In kind it is cell-based. The conditions noted are these: inhibitor 5 µM; pinacidil 1 µM; norepinephrine 5 µM contracted rings; mean ± sem; relaxation at 15 minutes versus control; number of rings in brackets; read-out: RMA K^+ Channel Antagonism % I at 5 µM. How it is done: The results for potassium channel blocking were obtained by using isolated rabbit mesenteric artery (RMA) procedures. Norepinephrine (5 µM) was used to contract the RMA rings twice, with an hour separating the two contractions. During this hour the tissues equilibrated in physiological salt solution at a resting tension of 1 gram. Upon the plateau of the second contraction 1 µM pinacidil was added to all tissues and the resulting relaxation time course was studied for thirty minutes. […] By studying the ability of the test compounds to inhibit this pinacidil-induced relaxation, the degree of potassium antagonism could be determined. The compounds were applied to the tissues for one hour between the two contractions and the pinacidil-induced relaxation was studied in the continuing presence of the compounds. Thus, the total time of pretreatment with the test compound was 75 minutes before the addition of pinacidil. […] The compounds were tested at 5 µM. The inhibitory effect of a compound was measured as percent inhibition of pinacidil relaxation at 15 minutes in comparison with the control.

Assay [1] relates to female Harlan Sprague-Dawley rats. Put plainly: Diuretic screen in rats: urinary Na^+ excretion. Type of assay: in vivo. How it is done:
The diuretic activity was determined in female Harlan Sprague-Dawley rats weighing 200 to 230 grams that were fasted 15 hours overnight, and then were deprived of both food and water for an additional hour prior to dosing. […] It approximates the area under the dose response curve. The vehicle was 20% dimethylacetamide (DMA; v/v) in a pH 7.4 phosphate buffer (0.58% N2HPO4 and 0.13% NaH2PO4·H2O). Sufficient drug was suspended in 1 to 2 ml of this vehicle to deliver doses of 1.0 to 30 mg/kg in a volume of 0.5 ml (2-4 rats/dose). At least 2 vehicle control rats, and, for most tests, 2 standard diuretic treated rats were included in each experiment. Standards used as comparators included the K^+ retaining diuretic amiloride and tie K^+ wasting diuretics furosemide, hydrochlorothiazide and metolazone.
Following their IP doses, the rats' urinary bladders were gently compressed to eliminate all pretreatment urine, and two identically treated rats were placed in a stainless steel metabolism cage equipped with a graduated test tube to collect voided urine. At 2 and 5 hours post treatment, the rats' bladders were again compressed, the volume of urine excreted by the pair of rats was recorded, and aliquots of urine were retained for analysis of Na^+ and K^+ concentrations with a NOVA-13 selective ion analyzer. Following the 5 hour urine collection, the rats were returned to their stock cages, and at least 1 week of recovery was allowed between a maximum of 3 diuretic tests.
The electrolyte concentrations detected in these urine samples were manually mulliplied by their respective volumes to determine total milliequivalent (mEq) excretion of Na^+ and K^+ per pair of rats, and the results obtained with multiple racks per drug treatment were averaged. Increases in urinary Na^+ excretion of 50% or more above the pooled control tests were regarded as reflecting activity.

Setting [2] is: net increase above control in urinary Na^+ excretion over 5 hours divided by total of the three drug doses, administered IP.

Sequence of RMA K^+ Channel (P82451 whole entry): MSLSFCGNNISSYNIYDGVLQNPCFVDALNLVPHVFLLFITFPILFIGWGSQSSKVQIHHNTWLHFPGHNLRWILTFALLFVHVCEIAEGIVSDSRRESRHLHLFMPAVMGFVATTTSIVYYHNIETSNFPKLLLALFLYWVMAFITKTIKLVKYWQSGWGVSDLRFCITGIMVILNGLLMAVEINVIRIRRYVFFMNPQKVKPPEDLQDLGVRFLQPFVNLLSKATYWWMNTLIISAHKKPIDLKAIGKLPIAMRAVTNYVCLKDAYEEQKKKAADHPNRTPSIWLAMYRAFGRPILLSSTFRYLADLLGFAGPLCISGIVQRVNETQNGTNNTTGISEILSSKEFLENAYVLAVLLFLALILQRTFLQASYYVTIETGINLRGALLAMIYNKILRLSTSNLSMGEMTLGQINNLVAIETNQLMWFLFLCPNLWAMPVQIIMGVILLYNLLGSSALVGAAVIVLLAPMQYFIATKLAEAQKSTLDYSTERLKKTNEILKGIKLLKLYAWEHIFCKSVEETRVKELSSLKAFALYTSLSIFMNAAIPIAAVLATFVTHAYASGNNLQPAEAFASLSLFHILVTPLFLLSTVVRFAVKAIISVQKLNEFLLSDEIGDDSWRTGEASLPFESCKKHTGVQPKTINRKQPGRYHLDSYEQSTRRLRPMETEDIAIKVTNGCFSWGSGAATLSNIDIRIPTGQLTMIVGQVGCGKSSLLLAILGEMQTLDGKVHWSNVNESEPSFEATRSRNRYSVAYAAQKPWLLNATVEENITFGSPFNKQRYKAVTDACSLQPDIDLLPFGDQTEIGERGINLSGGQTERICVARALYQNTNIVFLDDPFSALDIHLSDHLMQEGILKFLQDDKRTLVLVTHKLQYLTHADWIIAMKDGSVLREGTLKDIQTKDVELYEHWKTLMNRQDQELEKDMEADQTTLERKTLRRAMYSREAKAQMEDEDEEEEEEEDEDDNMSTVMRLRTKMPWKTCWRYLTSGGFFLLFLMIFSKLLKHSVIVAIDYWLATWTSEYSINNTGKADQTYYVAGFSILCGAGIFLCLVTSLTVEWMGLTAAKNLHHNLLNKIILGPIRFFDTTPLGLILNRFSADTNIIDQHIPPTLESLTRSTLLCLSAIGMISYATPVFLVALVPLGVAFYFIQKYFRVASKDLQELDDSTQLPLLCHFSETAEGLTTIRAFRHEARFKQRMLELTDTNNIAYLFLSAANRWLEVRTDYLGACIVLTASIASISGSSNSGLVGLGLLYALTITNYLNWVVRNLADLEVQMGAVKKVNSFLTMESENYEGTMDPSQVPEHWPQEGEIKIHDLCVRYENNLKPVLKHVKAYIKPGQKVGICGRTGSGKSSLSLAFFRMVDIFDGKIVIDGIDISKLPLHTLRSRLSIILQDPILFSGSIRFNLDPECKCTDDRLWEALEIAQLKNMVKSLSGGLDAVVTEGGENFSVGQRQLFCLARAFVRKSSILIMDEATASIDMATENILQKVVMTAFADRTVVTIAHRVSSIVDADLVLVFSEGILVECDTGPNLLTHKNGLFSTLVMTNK
Sequence of RMA K^+ Channel (Q8WMQ7 1-424): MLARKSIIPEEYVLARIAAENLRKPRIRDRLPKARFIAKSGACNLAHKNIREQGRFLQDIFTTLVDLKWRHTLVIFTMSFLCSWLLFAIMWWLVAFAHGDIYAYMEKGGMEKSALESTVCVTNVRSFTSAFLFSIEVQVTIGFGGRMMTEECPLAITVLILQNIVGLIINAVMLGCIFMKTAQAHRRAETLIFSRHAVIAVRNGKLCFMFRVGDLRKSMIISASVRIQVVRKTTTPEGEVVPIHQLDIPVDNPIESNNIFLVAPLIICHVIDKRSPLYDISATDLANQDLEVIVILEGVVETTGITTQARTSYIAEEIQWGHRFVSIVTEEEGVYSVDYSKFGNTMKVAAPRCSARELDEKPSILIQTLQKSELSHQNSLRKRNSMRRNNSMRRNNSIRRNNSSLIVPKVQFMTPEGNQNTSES

`N#CN=C(NCC(c1ccccc1)c1ccccc1)Nc1cccnc1` [Control]: the inhibition at 5 µM at RMA K^+ Channel is 0%. In addition, the “5 h Net Natriuretic Efficacy (µEq Na^+/mg/kg)” value (shortened to “5 h Net Natriuretic Efficacy”) in assay [1] (setting [2]) worked out at 0.0 µEq Na^+/mg/kg.

Consider `CC(N/C(=N\C#N)Nc1ccncc1)C(C)(C)C` (centres unmarked) [Pinacidil], for which the inhibition at 5 µM on RMA K^+ Channel worked out at 0%. Also, in assay [1] (antidiuresis seen with 5 mg/kg oral dosage (footnote d)), the “5 h Net Natriuretic Efficacy” value is -60^d µEq Na^+/mg/kg.

Consider `C[C@@H](NC(=NC#N)Nc1cncnc1)c1ccccc1` [Example 1, (R)-N"-Cyano-N-(5-pyrimidyl)-N'-(1-phenyl)ethylguanidine], for which, at RMA K^+ Channel, the inhibition at 5 µM is 81.7 ± 4.4%. In addition, in assay [1] (setting [2]), the “5 h Net Natriuretic Efficacy” value is 13.2 µEq Na^+/mg/kg.

Take `N#CN=C(Nc1cnc(N)nc1)NC1(c2ccccc2)CCC1` [Example 2, N-(2-Amiro-5-pyrimidyl)N"-cyano-N'-(1-phenyl)cyclobutylguanidine]: the inhibition at 5 µM at RMA K^+ Channel was 97%. Besides, the “5 h Net Natriuretic Efficacy” value in assay [1] (setting [2]) came to 43 µEq Na^+/mg/kg.
